In patent US7763602B2, “Pyrrole derivatives as antimycobacterial compounds” (priority 2002, dated 2010):
Values after ≈ are worked out from the molar mass of the structure shown.

Columns and labels:
[1] = test system: M. tuberculosis H37Rv ATCC 27294; assay: In vitro growth inhibition assay, BACTEC 460 TB system; assay type: cell-based, Mycobacterium tuberculosis; design: key: +: If ΔGI of test vial is less than that of the control vial the culture was sensitive to the test compound; conditions: final concentration 6.25 μg/ml
M. tuberculosis 27294 = assay: In vitro agar dilution assay (MIC), reference strain; assay type: cell-based, Mycobacterium tuberculosis; conditions: for MIC: Mycobacterium tuberculosis, 27294, Table I, read-out: MIC (μg/ml) against M. tuberculosis-27294; for MIC (μg/ml) against M. tuberculosis-27294: Table I
[2] = test system: M. tuberculosis clinical isolates, sensitive; assay: microbe, parasite or virus in culture; assay type: cell-based, Mycobacterium tuberculosis; conditions: for MIC: Mycobacterium tuberculosis, read-out: MIC (μg/ml) against Clinical isolates Sensitive; for MIC (μg/ml) against Clinical isolates Sensitive: Table I, agar dilution

| SMILES | melting point | Growth inhibition of M. tuberculosis 27294 [1] | MIC (M. tuberculosis 27294) | MIC [2] | MIC (μg/ml) against M. tuberculosis-27294 (M. tuberculosis 27294) | MIC (μg/ml) against Clinical isolates Sensitive [2] |
| --- | --- | --- | --- | --- | --- | --- |
| Cc1cc(CN2CCN(c3ccccn3)CC2)c(-c2ccccc2)n1-c1ccccn1 | 135 to 137 °C | – | – | – | – | – |
| Cc1cc(CN2CCN(C(c3ccccc3)c3ccccc3)CC2)c(-c2ccc(Cl)cc2)n1-c1ccc(F)cc1F | 76 to 78 °C | – | – | – | – | – |
| COc1ccccc1N1CCN(Cc2cc(C)n(-c3ccc(F)cc3F)c2-c2ccccc2)CC1 [compound 56, 1-{[1-(2,4-difluorophenyl)-5-methyl-2-phenylpyrrol-3-yl]methyl}-4-(2-methoxyphenyl) piperazine] | 60 to 62 °C | + | 8 µg/mL (≈ 16.9 µM) | 8 µg/mL (≈ 16.9 µM) | – | – |
| Cc1c(CN2CCN(c3ccc(F)cc3)CC2)cc(-c2ccc(Cl)cc2)n1-c1ccc(Cl)cc1 [Compound No. 1, 1-{[1,5-bis(4-chlorophenyl)-2-methylpyrrol-3-yl]methyl}-4-(4-fluorophenyl) piperazine] | – | + | 0.5 µg/mL (≈ 1.01 µM) | 0.5 to 2 µg/mL (≈ 1.01 to 4.04 µM) | – | – |
| Cc1cc(CN2CCN(c3cccc(C(F)(F)F)c3)CC2)c(-c2ccccc2)n1NC(=O)c1cnccn1 [compound 33, N-(3-{[4-(3-trifluoromethylphenyl)piperazinyl]methyl}-5-methyl-2-phenylpyrrolyl)pyrazin-2-ylcarboxamide] | – | + | – | – | 2.0 µg/mL (≈ 3.84 µM) | 2.0 to 8.0 µg/mL |
| Cc1c(CN2CCN(C)CC2)cc(-c2ccccc2)n1NC(=O)c1ccncc1 [compound 16, N-{2-methyl-3-[(4-methylpiperazinyl)methyl]-5-phenylpyrrolyl}-4-pyridylcarboxamide] | – | + | – | – | 2.0 µg/mL (≈ 5.13 µM) | 2.0 to 4.0 µg/mL |
| Cc1cc(CN2CCN(c3cccc(C(F)(F)F)c3)CC2)c(-c2ccccc2)n1NC(=O)c1ccncc1 [Compound No. 23, N-(3-{[4-(3-trifluoromethylphenyl)piperazinyl]methyl}-5-methyl-2-phenylpyrrolyl)-4-pyridylcarboxamide] | – | + | – | – | 0.25 µg/mL (≈ 0.481 µM) | 0.25 to 1.0 µg/mL |
| Cc1c(CN2CCN(c3ccc(F)cc3)CC2)cc(-c2ccc(Cl)cc2)n1-c1ccc(F)cc1F [compound 44, 1-{[1-(2,4-difluorophenyl)-5-(4-chlorophenyl)-2-methylpyrrol-3-yl]methyl}-4-(4-fluorophenyl)piperazine] | – | + | 1 µg/mL (≈ 2.02 µM) | 1 to 2 µg/mL (≈ 2.02 to 4.03 µM) | – | – |
| Cc1cc(CN2CCN(c3ccccn3)CC2)c(-c2ccccc2)n1-c1ccc(F)cc1F [compound 58, 1-{[1-(2,4-difluorophenyl)-5-methyl-2-phenylpyrrol-3-yl]methyl}-4-(2-pyridyl) piperazine] | – | + | 8 µg/mL (≈ 18 µM) | 8 µg/mL (≈ 18 µM) | – | – |
| COc1ccccc1N1CCN(Cc2cc(-c3ccccc3)n(NC(=O)c3cnccn3)c2C)CC1 [compound 26, N-(3-{[4-(2-methoxyphenyl)piperazinyl]methyl}-2-methyl-5-phenylpyrrolyl) pyrazin-2-ylcarboxamide] | – | + | – | – | 1.0 µg/mL (≈ 2.07 µM) | 2.0 µg/mL (≈ 4.14 µM) |
| Cc1c(CN2CCN(c3cccc(C(F)(F)F)c3)CC2)cc(-c2ccccc2)n1NC(=O)c1cnccn1 [compound 27, N-(3-{[4-(3-trifluoromethylphenyl)piperazinyl]methyl}-2-methyl-5-phenylpyrrolyl)pyrazin-2-ylcarboxamide] | – | + | – | – | 2.0 µg/mL (≈ 3.84 µM) | 1.0 to 4.0 µg/mL |
| Cc1c(CN2CCN(c3ccccn3)CC2)cc(-c2ccccc2)n1-c1ccc(F)cc1F [compound 54, 1-{[1-(2,4-difluorophenyl)-2-methyl-5-phenylpyrrol-3-yl]methyl}-4-(2-pyridyl) piperazine] | 144 to 146 °C | + | 2 µg/mL (≈ 4.5 µM) | 4 µg/mL (≈ 9 µM) | – | – |
| Cc1c(CN2CCN(c3ccccn3)CC2)cc(-c2ccc(Cl)cc2)n1-c1ccc(Cl)cc1 [compound 4, 1-{[1,5-bis(4-chlorophenyl)-2-methylpyrrol-3-yl]methyl}-4-(2-pyridyl) piperazine] | – | + | 0.5 µg/mL (≈ 1.05 µM) | 0.25 to 1 µg/mL (≈ 0.524 to 2.09 µM) | – | – |
| Cc1c(CN2CCN(Cc3ccc4c(c3)OCO4)CC2)cc(-c2ccc(Cl)cc2)n1-c1cccc2ccccc12 [compound 62, 5-[(4-{[5-(4-chlorophenyl)-2-methyl-1-naphthylpyrrol-3-yl]methyl}-piperazinyl)methyl]-2H-benzo[d]1,3-dioxolane] | – | + | – | – | >16.0 µg/mL | >16.0 µg/mL |
| Cc1c(CN2CCN(c3ccccn3)CC2)cc(-c2ccccc2)n1NC(=O)c1ccncc1 [compound 14, N-(3-{[4-(2-pyridyl)piperazinyl]methyl}-2-methyl-5-phenylpyrrolyl)-4-pyridylcarboxamide] | – | + | – | – | 4.0 µg/mL (≈ 8.84 µM) | 4.0 to 8.0 µg/mL |
| Cc1ccc(Cl)cc1N1CCN(Cc2cc(-c3ccc(Cl)cc3)n(-c3ccc(Cl)cc3)c2C)CC1 [compound 10, 1-{[1,5-bis(4-chlorophenyl)-2-methylpyrrol-3-yl]methyl}-4-(5-chloro-2-methylphenyl) piperazine] | – | + | 1 µg/mL (≈ 1.91 µM) | 1 to 2 µg/mL (≈ 1.91 to 3.81 µM) | – | – |
| COc1ccccc1N1CCN(Cc2cc(-c3ccc(Cl)cc3)n(-c3ccc(F)cc3F)c2C)CC1 [compound 45, 1-{[1-(2,4-difluorophenyl)-5-(4-chlorophenyl)-2-methylpyrrol-3-yl]methyl}-4-(2-methoxyphenyl)piperazine] | – | + | 0.5 µg/mL (≈ 0.984 µM) | 0.5 to 2 µg/mL (≈ 0.984 to 3.94 µM) | – | – |
| Cc1c(CN2CCN(c3cccc(C(F)(F)F)c3)CC2)cc(-c2ccc(Cl)cc2)n1-c1ccc(F)cc1F [compound 46, 1-{[1-(2,4-difluorophenyl)-5-(4-chlorophenyl)-2-methylpyrrol-3-yl]methyl}-4-(3-trifluoromethylphenyl)piperazine] | – | + | 2 µg/mL (≈ 3.66 µM) | 2 to 4 µg/mL (≈ 3.66 to 7.33 µM) | – | – |
| COc1ccccc1N1CCN(Cc2cc(C)n(NC(=O)c3cnccn3)c2-c2ccc(Cl)cc2)CC1 [compound 42, N-(2-(4-chlorophenyl)-3-{[4-(2-methoxyphenyl)piperazinyl]methyl}-5-methylpyrrolyl)pyrazin-2-ylcarboxamide] | – | + | – | – | 8.0 µg/mL (≈ 15.5 µM) | 8.0 µg/mL (≈ 15.5 µM) |
| Cc1c(CN2CCN(Cc3ccc4c(c3)OCO4)CC2)cc(-c2ccccc2)n1NC(=O)c1ccncc1 [compound 17, N-(3-{[4-(2H-benzo[d]1,3-dioxolan-5-ylmethyl)piperazinyl]methyl}-2-methyl-5-phenylpyrrolyl)-4-pyridylcarboxamide] | – | + | – | – | 2.0 µg/mL (≈ 3.92 µM) | 2.0 to 4.0 µg/mL |
